Results taken from patent publication US20260183295A1, “METHODS AND COMPOSITIONS FOR TREATING CANCER” (Onconova Therapeutics, Inc., priority 2022, published 2026).

Legend:
[1] = system: MDA-MB-231; experiment: Cell viability after 72 hours treatment; assay type: cell-based; settings: MDA-MB-231 (TNBC)
Description: (§1) The effects on the different treatment conditions on BUB 1 levels and PARP cleavage were also assessed. For both MNA-MB-231 cells, Compound 1 alone or with HCQ or SBI decreased BUB1 levels and cleaved PARP with […] decreases in cell viability observed for all treatments except Compound 1+SBI in MMA-MB-231 cells. The effects of Compound 1 with or without autophagy inhibitors was less pronounced in HCC-1937 cells.

[2] = system: HCC-1937; experiment: Cell viability after 72 hours treatment; assay type: cell-based; settings: HCC-1937 (TNBC)
Description: as §1

[3] = system: MDA-MB-468; experiment: Cell viability after 72 hours treatment; assay type: cell-based; settings: MDA-MB-468 (TNBC)
Description: as §1

[4] = biological target: T1, NUAK1 (Homo sapiens, UniProt O60285); experiment: NUAK1 In Vitro Kd, kinase binding assay (qPCR); settings: second In Vitro column of Table 8
T1 sequence (O60285 1-661): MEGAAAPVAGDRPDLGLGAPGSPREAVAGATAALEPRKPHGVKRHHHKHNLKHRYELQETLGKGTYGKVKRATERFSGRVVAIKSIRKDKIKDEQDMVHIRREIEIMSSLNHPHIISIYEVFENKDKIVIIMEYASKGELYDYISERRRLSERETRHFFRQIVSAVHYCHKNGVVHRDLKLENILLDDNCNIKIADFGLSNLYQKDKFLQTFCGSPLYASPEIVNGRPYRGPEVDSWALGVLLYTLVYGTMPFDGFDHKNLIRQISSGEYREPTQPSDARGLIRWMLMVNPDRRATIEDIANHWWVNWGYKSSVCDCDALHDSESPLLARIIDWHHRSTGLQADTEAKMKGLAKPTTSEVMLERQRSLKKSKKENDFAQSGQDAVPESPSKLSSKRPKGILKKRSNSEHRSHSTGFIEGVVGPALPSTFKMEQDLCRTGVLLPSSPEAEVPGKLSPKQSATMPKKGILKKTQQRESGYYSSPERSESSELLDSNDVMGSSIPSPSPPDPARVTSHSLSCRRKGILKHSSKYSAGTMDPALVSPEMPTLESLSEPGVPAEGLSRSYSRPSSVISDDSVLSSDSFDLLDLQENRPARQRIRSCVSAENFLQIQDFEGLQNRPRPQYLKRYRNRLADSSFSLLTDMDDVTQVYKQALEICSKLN
Description: Kinase-tagged T7 phage strains were prepared in an E. coli host derived from the BL21 strain. E. coli were grown to log-phase and infected with T7 phage and incubated with shaking at 32° C. until lysis. The lysates were spun by centrifuge and filtered to remove cell debris. The remaining kinases were produced in HEK-293 cells and subsequently tagged with DNA for qPCR detection. […] The liganded beads were blocked with excess biotin and washed with blocking buffer (SeaBlock (Pierce), 1% BSA, 0.05% Tween 20, 1 mM DTT) to remove unbound ligand and to reduce non-specific binding. […] Test compounds were prepared as 111× stocks in 100% DMSO. Kds were determined using an 11-point 3-fold compound dilution series with three DMSO control points.
The compounds were then diluted directly into the assays such that the final concentration of DMSO was 0.9%. All reactions performed in polypropylene 384-well plate. Each was a final volume of 0.02 ml. […] The kinase concentration in the eluates was measured by qPCR. Binding constants (Kds) were calculated with a standard dose-response curve using the Hill equation: Response=Background+Signal−Background 1+(KdHill Slope/DoseHill Slope) The Hill Slope was set to −1. Curves were fitted using a non-linear least square fit with the Levenberg-Marquardt algorithm.

[5] = system: MDA-MB-231 cells; experiment: CytoTox-Glo cytotoxicity assay with or without bafilomycin A1, 2 days; assay type: cell-based; settings: 5 μM
[6] = system: MDA-MB-231 cells; experiment: Lysotracker Green staining, phase contrast microscopy; assay type: cell-based; settings: 5 μM, 2 hours
Description: MDA-MB-231 cells were treated with Compound 1 (5 μM) for 2 hours and stained with Lysotracker Green and imaged using phase contrast microscopy to examine the effect of Compound 1 treatment on vacuolization.

[7] = system: CXCL10; experiment: qPCR of T-cell recruiting chemokine mRNA, PyMT cells; assay type: cell-based, mouse
[8] = system: Akt pSer473; experiment: Western blot, MDA-MB-231 cells, 24 hours; assay type: cell-based; settings: 2.5, 5, 10 μM, versus Comparator 1, 2 and 4
[9] = system: Hs578t cells; experiment: Cancer cell growth, 48 hours; assay type: cell-based; settings: 5 μM or 10 μM, compared to Comparator 1 (FIG. 1)
Description: At the end of 48 hours, growth of cells was measured using standard techniques.

[10] = system: Caspase 3/7; experiment: Caspase 3/7 Glo assay with or without bafilomycin A1, MDA-MB-231 cells, 2 days; assay type: cell-based; settings: 5 μM
Description: FIGS. 34 and 35 show Caspase 3/7 activity as measured by the Caspase 3/7 Glo assay. […] The effect was enhanced by co-treatment with bafilomycin A1 cotreatment.

[11] = system: PyMT cells; experiment: Annexin V/PI staining, apoptotic cells, 48 hours; assay type: cell-based, mouse; settings: compared to Comparator 1 (5 μM) and Comparator 3 (1 μM)
[12] = system: MDA-MB-231 cells; experiment: Transmission electron microscopy of cellular morphology; assay type: cell-based; settings: 5 μM, 24 hours, compared to DMSO
Description: The effect of Compound 1 (5 μM) treatment for 24 hours on cellular morphology was assessed using transmission electron microscopy (TEM) and compared to DMSO. FIG. 27 and FIG. 28 show representative TEM images of MDA-MB-231 cells treated with DMSO or Compound 1.

[13] = system: BRAF; experiment: Phosphoproteomic analysis, MDA-MB-231; assay type: cell-based; settings: 5 μM, 2 hours, T-test p<0,05
Description: Following treatment, a sample of each of the three treatments was analyzed by Western Blot for expression of phosphoprotein targets.
In addition to western blot analysis, the cell lysate samples underwent phosphoproteomic analysis.

[14] = system: CCL5; experiment: qPCR of T-cell recruiting chemokine mRNA, PyMT cells; assay type: cell-based, mouse
[15] = biological target: CDK4/cyclin D1 (Homo sapiens, UniProt P11802); experiment: CDK4/cyclin D1 In Vitro IC50; assay type: biochemical
Description: Substrate was prepared in freshly prepared base reaction buffer. Any required cofactors were delivered to the substrate solution above. Indicated kinase was delivered into the substrate solution and the solution was gently mixed. Compounds were delivered in 100% DMSO into the kinase reaction mixture by Acoustic technology (Echo550; nanoliter range) and incubated for 20 minutes at room temperature. 33P-ATP was delivered into the reaction mixture to initiate the reaction. The kinase reaction was incubated for 2 hours at room temperature. Kinase activity was detected by P81 filter-binding method.

CDK4/cyclin D1, sequence (P11802 whole entry): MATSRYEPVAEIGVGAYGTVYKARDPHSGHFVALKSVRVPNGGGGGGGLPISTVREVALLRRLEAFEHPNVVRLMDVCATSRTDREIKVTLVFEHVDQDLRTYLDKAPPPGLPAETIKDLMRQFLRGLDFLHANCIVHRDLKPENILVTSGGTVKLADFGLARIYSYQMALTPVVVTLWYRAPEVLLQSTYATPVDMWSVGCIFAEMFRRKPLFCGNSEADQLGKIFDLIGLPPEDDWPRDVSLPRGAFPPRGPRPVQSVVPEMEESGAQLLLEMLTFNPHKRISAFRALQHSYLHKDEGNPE
CDK4/cyclin D1, sequence (P24385 whole entry partner): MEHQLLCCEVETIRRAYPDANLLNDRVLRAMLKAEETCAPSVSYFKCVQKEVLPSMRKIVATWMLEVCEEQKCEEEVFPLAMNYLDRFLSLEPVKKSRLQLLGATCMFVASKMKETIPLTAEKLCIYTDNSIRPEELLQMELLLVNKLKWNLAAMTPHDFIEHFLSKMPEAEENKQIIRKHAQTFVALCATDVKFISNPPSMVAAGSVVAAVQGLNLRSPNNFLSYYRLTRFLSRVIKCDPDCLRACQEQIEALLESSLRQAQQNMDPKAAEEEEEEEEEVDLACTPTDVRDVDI

CN1CCN(c2ccc(Nc3ncc4cc(C#N)c(=O)n(C5CCCC5)c4n3)cc2)CC1 [Compound 1, 8-cyclopentyl-2-((4-(4-methylpiperazin-1-yl)phenyl)amino)-7-oxo-7,8-dihydropyrido[2,3-d]pyrimidine-6-carbonitrile]
72 h-cell viability decrease [1]: 75%
72 h-cell viability decrease [2]: 25%
72 h-cell viability decrease [3]: 80%
Kd [4]: 19 nM
cell death (Cell Tox Glo), compound alone [5]: induced cell death
effect of bafilomycin A1 cotreatment on cell death (Cell Tox Glo) [5]: enhanced
vacuolization, Lysotracker Green staining [6]: extensive cytoplasmic vacuolization that colocalized with Lysotracker green staining
time of peak CXCL10 mRNA levels [7]: ~48 h
CXCL10 mRNA levels ([7]; 24, 48 and 72 hours): large increase
Akt pSer473 levels [8]: decreasing
growth of cells [9]: significantly inhibited
Caspase 3/7 activity, compound alone [10]: increased Caspase 3/7 activity
effect of bafilomycin A1 cotreatment on Caspase 3/7 activity [10]: enhanced
number of apoptotic cells (Annexin V/PI) [11]: increased numbers of apoptotic cells
cellular morphology (TEM) [12]: extensive vacuolization
Significance (phosphopeptide target) [13]: significant
time of peak CCL5 mRNA levels [14]: ~48 h
CCL5 mRNA levels ([14]; 24, 48 and 72 hours): large increase
IC50 [15]: 2 nM
